Data published in patent publication US9493455B2, “Azaindole derivatives as inhibitors of protein kinases” (ORIBASE PHARMA, priority 2012, dated 2016).

What was measured:
[1] = molecular target: T1, BRAF (Homo sapiens, UniProt P15056); test: In vitro kinase assay (Z′-LYTE); assay type: biochemical; conditions: compound 100 nM; ATP 100 μM; read-out: % of inhibition of the kinase compared to the control
T1 construct: purchased Invitrogen
Summary of the method: (§1)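 Inhibition measured at a single dose, 100 nM, or 10 μM for ABL T315I. Z′-LYTE format with ATP at apparent Km; emission ratio of donor to acceptor quantifies phosphorylation.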

[2] = molecular target: T2, EGFR (ErbB1) (Homo sapiens, UniProt P00533); test: In vitro kinase assay (Z′-LYTE); assay type: biochemical; conditions: read-out: % of inhibition of the kinase compared to the control
T2 construct: purchased Invitrogen
Summary of the method: as §1

[3] = molecular target: T3, EGFR (ErbB1) T790M L858R (Homo sapiens, UniProt P00533, L858R/T790M); test: In vitro kinase assay (Z′-LYTE); assay type: biochemical; conditions: read-out: % of inhibition of the kinase compared to the control
T3 construct: purchased Invitrogen
Summary of the method: as §1

[4] = molecular target: T4, FGFR2 (Homo sapiens, UniProt P21802); test: In vitro kinase assay (Z′-LYTE); assay type: biochemical; conditions: read-out: % of inhibition of the kinase compared to the control
T4 construct: purchased Invitrogen
Summary of the method: as §1

[5] = molecular target: T5, KDR (VEGFR2) (Homo sapiens, UniProt P35968); test: In vitro kinase assay (Z′-LYTE); assay type: biochemical; conditions: read-out: % of inhibition of the kinase compared to the control
T5 construct: purchased Invitrogen
Summary of the method: as §1

[6] = molecular target: T6, PDGFRA (PDGFR alpha) (Homo sapiens, UniProt P16234); test: In vitro kinase assay (Z′-LYTE); assay type: biochemical; conditions: read-out: % of inhibition of the kinase compared to the control
T6 construct: purchased Invitrogen
Summary of the method: as §1

[7] = molecular target: T7, SRC (Homo sapiens, UniProt P12931); test: In vitro kinase assay (Z′-LYTE); assay type: biochemical; conditions: read-out: % of inhibition of the kinase compared to the control
T7 construct: purchased Invitrogen
Summary of the method: as §1

[8] = tested on: A549; test: In vitro cell proliferation assay (MTT); assay type: cell-based; conditions: Homo sapiens, A549, 72 h
Summary of the method: (§2)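 Growth is assessed with the tetrazolium dye MTT following a 72 hr incubation with compound spanning 10 nM up to 3 μM, each dose tested twice on 5×10^3 plated cells per well.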

[9] = tested on: H1975; test: In vitro cell proliferation assay (MTT); assay type: cell-based; conditions: Homo sapiens, NCI-H1975, 72 h
Summary of the method: as §2

[10] = tested on: HT29; test: In vitro cell proliferation assay (MTT); assay type: cell-based; conditions: Homo sapiens, HT-29, 72 h
Summary of the method: as §2

[11] = tested on: HUVEC; test: In vitro cell proliferation assay (MTT); assay type: cell-based; conditions: Homo sapiens, 72 h
Procedure: Cancer cell lines (5×10^3 cells per well) or HUVEC (1×10^4 cells per well) or HRMEC (1×10^4 cells per well) were distributed in 96-well plates and incubating in duplicate with escalating concentrations (10 nM to 3 μM) of compounds for 72 hr. Cell proliferation was measured using MTT (3 [4,5-dimethylthiazol-2-yl]-2,5-diphenyltetrazolium bromide).

[12] = tested on: HeLa; test: In vitro cell proliferation assay (MTT); assay type: cell-based; conditions: Homo sapiens, 72 h
Summary of the method: as §2

[13] = tested on: HepG2; test: In vitro cell proliferation assay (MTT); assay type: cell-based; conditions: Homo sapiens, HepG2, 72 h
Summary of the method: as §2

[14] = tested on: HuCCT1; test: In vitro cell proliferation assay (MTT); assay type: cell-based; conditions: Homo sapiens, HuCCT-1, 72 h
Summary of the method: as §2

[15] = tested on: HuH6 Clone 5; test: In vitro cell proliferation assay (MTT); assay type: cell-based; conditions: HUH-6-clone5, 72 h
Summary of the method: as §2

[16] = tested on: HuH7; test: In vitro cell proliferation assay (MTT); assay type: cell-based; conditions: Homo sapiens, Huh-7, 72 h
Summary of the method: as §2

[17] = tested on: MDA-MB-231; test: In vitro cell proliferation assay (MTT); assay type: cell-based; conditions: Homo sapiens, MDA-MB-231, 72 h
Summary of the method: as §2

[18] = molecular target: T8, ABL (Homo sapiens, UniProt P00519); test: In vitro kinase assay (Z′-LYTE); assay type: biochemical; conditions: read-out: % of inhibition of the kinase compared to the control
T8 construct: purchased Invitrogen

[19] = molecular target: T9, ABL T315I (Homo sapiens, UniProt P00519, T315I); test: In vitro kinase assay (Z′-LYTE); assay type: biochemical; conditions: read-out: % of inhibition of the kinase compared to the control
T9 construct: purchased Invitrogen
Summary of the method: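 Peptide/kinase mix combined with ATP (apparent Km) in 50 mM HEPES pH 7.5, 10 mM MgCl2, 1 mM EGTA, 0.01% BRIJ-35; compound present at 100 nM, except 10 μM for ABL T315I; DMSO 1% final. Protease development, then FRET emission ratio.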

[20] = molecular target: T10, FGFR1 (Homo sapiens, UniProt P11362); test: In vitro kinase assay (Z′-LYTE); assay type: biochemical; conditions: read-out: % of inhibition of the kinase compared to the control
T10 construct: purchased Invitrogen
Summary of the method: as §1

[21] = molecular target: T11, PDGFRB (Homo sapiens, UniProt P09619); test: In vitro kinase assay (Z′-LYTE); assay type: biochemical; conditions: read-out: % of inhibition of the kinase compared to the control
T11 construct: purchased Invitrogen
Summary of the method: as §1

[22] = molecular target: T12, VEGFR1 (Homo sapiens, UniProt P17948); test: In vitro kinase assay (Z′-LYTE); assay type: biochemical; conditions: read-out: % of inhibition of the kinase compared to the control
T12 construct: purchased Invitrogen
Summary of the method: as §1

[23] = tested on: BxPC-3; test: In vitro cell proliferation assay (MTT); assay type: cell-based; conditions: Homo sapiens, BXPC-3, 72 h
Summary of the method: as §2

[24] = tested on: PC-3; test: In vitro cell proliferation assay (MTT); assay type: cell-based; conditions: Homo sapiens, PC-3, 72 h
Summary of the method: as §2

T3 sequence (P00533 25-1210 T790M/L858R): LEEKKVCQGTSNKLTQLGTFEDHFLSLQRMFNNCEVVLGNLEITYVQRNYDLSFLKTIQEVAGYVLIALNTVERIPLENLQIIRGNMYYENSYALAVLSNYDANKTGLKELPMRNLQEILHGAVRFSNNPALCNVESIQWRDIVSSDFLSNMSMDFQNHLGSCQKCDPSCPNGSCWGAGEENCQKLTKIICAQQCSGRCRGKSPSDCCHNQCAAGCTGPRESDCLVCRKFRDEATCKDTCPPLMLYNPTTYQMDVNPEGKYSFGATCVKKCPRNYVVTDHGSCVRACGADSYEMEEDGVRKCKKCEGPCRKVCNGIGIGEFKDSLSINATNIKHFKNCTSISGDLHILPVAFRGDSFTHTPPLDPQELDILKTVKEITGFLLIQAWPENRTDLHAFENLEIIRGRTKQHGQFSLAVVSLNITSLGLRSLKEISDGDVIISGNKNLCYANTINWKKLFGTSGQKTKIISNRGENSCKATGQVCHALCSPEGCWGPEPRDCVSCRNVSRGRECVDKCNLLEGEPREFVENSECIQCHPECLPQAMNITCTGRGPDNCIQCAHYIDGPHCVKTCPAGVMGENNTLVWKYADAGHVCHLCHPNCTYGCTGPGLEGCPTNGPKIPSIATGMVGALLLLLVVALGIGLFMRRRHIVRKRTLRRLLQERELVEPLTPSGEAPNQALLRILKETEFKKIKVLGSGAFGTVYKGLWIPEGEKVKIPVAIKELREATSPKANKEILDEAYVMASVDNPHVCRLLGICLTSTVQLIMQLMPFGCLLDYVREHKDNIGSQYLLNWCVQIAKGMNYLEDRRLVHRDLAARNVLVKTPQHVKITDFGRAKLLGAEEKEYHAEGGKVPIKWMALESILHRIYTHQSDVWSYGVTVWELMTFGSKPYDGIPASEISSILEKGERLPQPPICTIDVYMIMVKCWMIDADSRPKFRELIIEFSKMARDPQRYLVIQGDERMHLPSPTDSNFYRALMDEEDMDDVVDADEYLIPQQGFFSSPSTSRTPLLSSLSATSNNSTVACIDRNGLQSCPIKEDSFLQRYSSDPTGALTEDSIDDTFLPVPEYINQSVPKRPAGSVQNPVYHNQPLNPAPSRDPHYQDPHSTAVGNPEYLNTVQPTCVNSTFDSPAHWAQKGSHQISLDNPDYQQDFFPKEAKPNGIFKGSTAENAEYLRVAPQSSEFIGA
T7 sequence (P12931 whole entry): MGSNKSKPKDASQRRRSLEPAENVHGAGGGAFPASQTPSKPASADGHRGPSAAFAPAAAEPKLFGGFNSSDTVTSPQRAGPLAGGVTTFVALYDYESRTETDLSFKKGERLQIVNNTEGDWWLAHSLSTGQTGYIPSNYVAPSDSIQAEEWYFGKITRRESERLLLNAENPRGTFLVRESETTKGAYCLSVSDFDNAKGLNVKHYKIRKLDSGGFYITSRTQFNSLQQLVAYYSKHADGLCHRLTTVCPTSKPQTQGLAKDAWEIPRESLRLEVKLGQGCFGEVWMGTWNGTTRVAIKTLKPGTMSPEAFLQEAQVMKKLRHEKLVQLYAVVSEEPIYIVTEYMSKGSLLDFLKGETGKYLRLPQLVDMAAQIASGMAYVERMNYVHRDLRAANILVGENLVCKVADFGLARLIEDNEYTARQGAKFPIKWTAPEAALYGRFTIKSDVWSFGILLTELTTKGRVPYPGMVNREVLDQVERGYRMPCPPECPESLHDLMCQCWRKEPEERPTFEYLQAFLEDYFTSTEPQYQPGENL
T4 sequence (P21802 22-821): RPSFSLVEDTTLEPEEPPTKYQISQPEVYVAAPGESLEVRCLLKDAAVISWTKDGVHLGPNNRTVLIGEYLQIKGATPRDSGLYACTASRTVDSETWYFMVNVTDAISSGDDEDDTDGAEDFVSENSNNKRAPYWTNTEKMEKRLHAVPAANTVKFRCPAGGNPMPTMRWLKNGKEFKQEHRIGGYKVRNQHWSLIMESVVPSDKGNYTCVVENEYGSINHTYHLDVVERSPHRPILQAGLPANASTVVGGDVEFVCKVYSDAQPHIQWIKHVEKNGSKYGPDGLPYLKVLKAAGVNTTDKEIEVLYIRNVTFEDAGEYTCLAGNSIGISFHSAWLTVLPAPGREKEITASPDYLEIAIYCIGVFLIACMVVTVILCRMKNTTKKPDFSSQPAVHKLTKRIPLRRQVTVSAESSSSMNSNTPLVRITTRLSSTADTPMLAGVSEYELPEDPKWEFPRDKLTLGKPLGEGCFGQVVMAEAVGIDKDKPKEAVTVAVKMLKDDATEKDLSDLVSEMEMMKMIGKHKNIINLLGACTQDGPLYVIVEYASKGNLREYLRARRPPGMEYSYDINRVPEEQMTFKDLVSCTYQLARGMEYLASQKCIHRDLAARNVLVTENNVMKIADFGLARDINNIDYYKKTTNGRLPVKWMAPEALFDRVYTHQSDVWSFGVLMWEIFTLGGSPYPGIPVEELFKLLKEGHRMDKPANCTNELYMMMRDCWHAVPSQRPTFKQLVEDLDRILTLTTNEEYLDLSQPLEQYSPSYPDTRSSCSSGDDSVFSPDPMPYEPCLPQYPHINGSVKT
T2 sequence (P00533 25-1210): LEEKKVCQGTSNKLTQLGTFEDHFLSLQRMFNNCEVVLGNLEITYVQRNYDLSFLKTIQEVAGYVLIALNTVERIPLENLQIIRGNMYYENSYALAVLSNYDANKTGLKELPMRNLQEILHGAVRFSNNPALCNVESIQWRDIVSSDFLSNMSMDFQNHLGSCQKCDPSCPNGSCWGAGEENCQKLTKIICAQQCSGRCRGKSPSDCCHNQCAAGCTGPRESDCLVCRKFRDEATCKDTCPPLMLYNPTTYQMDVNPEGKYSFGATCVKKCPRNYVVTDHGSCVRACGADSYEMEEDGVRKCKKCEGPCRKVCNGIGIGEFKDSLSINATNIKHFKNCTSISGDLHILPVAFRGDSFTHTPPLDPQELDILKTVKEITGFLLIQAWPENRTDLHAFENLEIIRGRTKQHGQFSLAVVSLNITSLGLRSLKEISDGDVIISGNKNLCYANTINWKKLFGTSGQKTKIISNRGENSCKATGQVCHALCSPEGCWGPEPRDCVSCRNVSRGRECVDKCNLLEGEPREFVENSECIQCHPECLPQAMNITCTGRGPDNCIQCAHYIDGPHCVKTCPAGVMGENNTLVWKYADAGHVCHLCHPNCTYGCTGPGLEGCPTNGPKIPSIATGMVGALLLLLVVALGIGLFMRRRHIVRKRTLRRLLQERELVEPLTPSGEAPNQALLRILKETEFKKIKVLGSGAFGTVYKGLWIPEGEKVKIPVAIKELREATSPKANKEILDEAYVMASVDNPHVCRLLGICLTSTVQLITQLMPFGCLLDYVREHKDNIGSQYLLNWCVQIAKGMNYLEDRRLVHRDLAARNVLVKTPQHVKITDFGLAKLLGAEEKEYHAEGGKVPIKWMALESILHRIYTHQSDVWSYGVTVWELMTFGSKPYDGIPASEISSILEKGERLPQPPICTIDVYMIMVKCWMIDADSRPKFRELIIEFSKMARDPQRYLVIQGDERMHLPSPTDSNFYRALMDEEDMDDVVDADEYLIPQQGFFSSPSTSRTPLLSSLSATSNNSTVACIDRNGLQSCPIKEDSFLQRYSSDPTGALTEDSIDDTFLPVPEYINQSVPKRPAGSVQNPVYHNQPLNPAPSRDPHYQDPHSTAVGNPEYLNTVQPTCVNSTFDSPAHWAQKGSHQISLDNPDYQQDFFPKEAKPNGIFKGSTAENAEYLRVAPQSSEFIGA
T6 sequence (P16234 24-1089): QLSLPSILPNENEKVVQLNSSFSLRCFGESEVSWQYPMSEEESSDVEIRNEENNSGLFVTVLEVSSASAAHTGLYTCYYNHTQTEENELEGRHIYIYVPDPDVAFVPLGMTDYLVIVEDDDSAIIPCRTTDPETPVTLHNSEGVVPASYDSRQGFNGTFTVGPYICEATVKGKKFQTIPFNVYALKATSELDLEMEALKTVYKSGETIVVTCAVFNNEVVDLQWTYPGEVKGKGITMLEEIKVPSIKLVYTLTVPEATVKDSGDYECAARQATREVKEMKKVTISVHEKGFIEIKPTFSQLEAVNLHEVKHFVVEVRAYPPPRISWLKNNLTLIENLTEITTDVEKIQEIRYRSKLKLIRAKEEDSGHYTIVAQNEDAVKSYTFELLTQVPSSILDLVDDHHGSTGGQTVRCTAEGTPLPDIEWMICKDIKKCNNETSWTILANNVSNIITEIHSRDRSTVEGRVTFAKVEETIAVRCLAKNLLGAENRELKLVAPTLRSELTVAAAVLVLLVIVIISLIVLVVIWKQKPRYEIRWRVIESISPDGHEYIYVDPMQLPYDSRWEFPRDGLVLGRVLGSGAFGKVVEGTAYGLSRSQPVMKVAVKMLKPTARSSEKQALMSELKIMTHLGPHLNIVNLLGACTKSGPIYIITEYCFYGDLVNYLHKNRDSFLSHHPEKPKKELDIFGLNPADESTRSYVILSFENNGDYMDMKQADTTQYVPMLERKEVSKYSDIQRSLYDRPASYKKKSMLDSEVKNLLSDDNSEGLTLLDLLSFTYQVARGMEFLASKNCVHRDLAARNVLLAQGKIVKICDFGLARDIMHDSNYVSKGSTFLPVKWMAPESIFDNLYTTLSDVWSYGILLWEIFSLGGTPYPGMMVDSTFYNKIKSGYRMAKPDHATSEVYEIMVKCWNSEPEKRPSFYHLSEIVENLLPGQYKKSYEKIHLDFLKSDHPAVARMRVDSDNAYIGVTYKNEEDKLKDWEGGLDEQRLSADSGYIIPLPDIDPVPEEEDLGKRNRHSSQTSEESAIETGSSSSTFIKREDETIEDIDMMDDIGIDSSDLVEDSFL

inhibition at 0.1 µM [1] [%]	inhibition at 0.1 µM [2] [%]	inhibition at 0.1 µM [3] [%]	inhibition at 0.1 µM [4] [%]	inhibition at 0.1 µM [5] [%]	inhibition at 0.1 µM [6] [%]	inhibition at 0.1 µM [7] [%]	EC50 [8] [µM]	EC50 [9] [µM]	EC50 [10] [µM]	EC50 [12] [µM]	EC50 [13] [µM]	EC50 [15] [µM]	EC50 [16] [µM]	EC50 [17] [µM]	inhibition at 10 µM [18] [%]	inhibition at 10 µM [19] [%]	EC50 [23] [µM]	SMILES	EC50 [11] [µM]	EC50 [14] [µM]	other results
≥ 50	< 50	< 50	< 50	< 50	≥ 50	≥ 50	0.1 to 1	≥ 1	0.1 to 1	≥ 1	0.1 to 1	≥ 1	0.1 to 1	0.1 to 1				COC(=O)c1cc2cc(NC(=O)c3cc(NC(=O)c4cncc(C(F)(F)F)c4)ccc3C)cnc2[nH]1 [OR0745]	0.1 to 1	≥ 1	
≥ 50	< 50		< 50	< 50	≥ 50	≥ 50	≥ 1			≥ 1	≥ 1			0.1 to 1				COC(=O)c1cc2cc(NCc3cc(NC(=O)c4ccccc4OC)ccc3C)cnc2[nH]1 [OR1062]	0.1 to 1		

More lines, now with the values behind:

SMILES	inhibition at 0.1 µM [1] [%]	inhibition at 0.1 µM [2] [%]	inhibition at 0.1 µM [3] [%]	inhibition at 0.1 µM [4] [%]	inhibition at 0.1 µM [5] [%]	inhibition at 0.1 µM [6] [%]	inhibition at 0.1 µM [7] [%]	EC50 [8] [µM]	EC50 [9] [µM]	EC50 [10] [µM]	EC50 [12] [µM]	EC50 [13] [µM]	EC50 [15] [µM]	EC50 [16] [µM]	EC50 [17] [µM]	inhibition at 10 µM [18] [%]	inhibition at 10 µM [19] [%]	EC50 [23] [µM]	EC50 [11] [µM]	EC50 [14] [µM]	other results
COC(=O)c1cc2cc(NCc3cc(NC(=O)c4cccc(OC(F)(F)F)c4)ccc3C)cnc2[nH]1 [OR0611]	< 50	< 50	< 50	< 50	< 50	≥ 50	≥ 50	0.1 to 1	0.1 to 1	0.1 to 1	≥ 1	≤ 0.1			≤ 0.1	≥ 50	≥ 50	≤ 0.1	0.1 to 1		inhibition at 0.1 µM [20]: < 50%; inhibition at 0.1 µM [21]: < 50%; inhibition at 0.1 µM [22]: < 50%; EC50 [24]: ≥ 1 µM
COC(=O)c1cc2cc(NCc3cc(NC(=O)c4cc(CN5CCN(C)CC5)cc(C(F)(F)F)c4)ccc3C)cnc2[nH]1 [OR0699]	≥ 50	≥ 50	< 50	< 50	≥ 50	≥ 50	≥ 50	≤ 0.1	0.1 to 1	≤ 0.1	0.1 to 1	0.1 to 1	≥ 1	0.1 to 1	0.1 to 1			≤ 0.1	0.1 to 1	0.1 to 1	
COC(=O)c1cc2cc(NCc3cc(NC(=O)c4cc(Nc5cc[nH]n5)cc(C(F)(F)F)c4)ccc3C)cnc2[nH]1 [OR0642]	< 50	≥ 50	< 50	< 50	< 50	< 50	≥ 50	0.1 to 1	≥ 1	0.1 to 1		≤ 0.1			≤ 0.1	≥ 50	≥ 50	0.1 to 1	≤ 0.1		inhibition at 0.1 µM [20]: < 50%; inhibition at 0.1 µM [21]: < 50%; inhibition at 0.1 µM [22]: < 50%; EC50 [24]: ≥ 1 µM
